Test results: patent publication US8859545B2, “Tetrahydronaphthyridine and tetrahydropyrido[4,3-D]pyrimidine compounds and compositions thereof useful for the treatment of inflammatory and respiratory diseases” (Evotec AG, priority 2005, dated 2014)

system: P2X2/3 chimera (P2X2/3C); assay: Calcium uptake assay (P2X antagonist assay, agonist-induced calcium influx); assay type: cell-based; settings: at 3 μM (symbol before the slash)
Excerpt: Human P2X3 (Accession no. NM_002559), P2X2 (Accession no. NM_170682) and Rat P2X3 (Accession no. NM_031075) and P2X2 (Accession no. NM_053656) are cloned into a mammalian expression vector (e.g., pcDNA5/TO or pcDNA3 Invitrogen). For coexpression of P2X2 and P2X3, the coding regions of both receptors were cloned into a bicistronic vector using methods similar to those described by Kawashima et al., Receptors Channels 5:53-60, 1998. The P2X2/3 chimera clone was created as described by Neelands et al, and then cloned into an expression vector as above. Receptors are expressed in cells (e.g., HEK293 or 1321N1) via transient transfection using standard lipid mediated transfection, or by creation of stable transfectants for each receptor. Cell lines are maintained in DMEM+5% Glutamax, the appropriate level of selective antibiotic, and 10% heat inactivated FBS.
The agonist EC50 is determined at the start of the assay and compound IC50 experiments are run using a set agonist concentration (EC50-90 depending on cell line) as stimulus. The agonists used are αβMeATP, ATP, or other ATP analogs. Compounds may be tested at concentrations ranging from 1 μM to 10 μM. Functional activity of compounds at the P2X receptor is determined by measuring their ability to inhibit agonist-induced calcium influx. Compounds may be tested for antagonist activity against the P2X2/3 chimera, the P2X3 homomer, or the P2X2/3 heteromer. To test for antagonist activity, cells expressing the appropriate receptor are seeded onto 96 or 384 well plates 18-24 hours prior to assay. On the day of the assay, cells are loaded with calcium-sensitive fluorescent dye (e.g., Fluo-4 no wash reagent-Invitrogen cat# F36206, or the BD™ PBX Calcium Assay Kit-BD cat#640175) in Hank's Buffered Salt Solution (HBSS) with up to 10 mM supplemental CaCl2. Plates are incubated at 37° C. and then equilibrated at room temperature. Antagonism of agonist-induced calcium influx is measured using a fluorescent imaging plate reader. The assay comprises two stages: a pre-treatment phase followed by a treatment phase. Compounds may be tested as follows: For the pre-treatment phase, 50 μL of 3× concentration of test compound in HBSS is added to cells containing 100 μL of dye loading media to achieve a final concentration of 1×. For the treatment phase, at a set interval after pre-treatment, 50 μL of 1× test compound plus 4× agonist solution is added to cells. Fluorescence is measured at 0.1-3 second intervals with an excitation wavelength of 494 nm and an emission wavelength of 515 nm. Responses are measured as peak fluorescence after compound-agonist addition minus baseline fluorescence prior to treatment. Percent inhibition is calculated as follows: […]
A calcium uptake assay was performed as described in paragraphs […] above.

Structure (SMILES)	Ca Influx P2X2/3C % Inhibition at 3 μM/10 μM
COc1cccc(CNc2ncnc3c2CN(c2ccc(C)cn2)CC3)c1 [Compound 28]	++++ (compound exhibited 75% or greater inhibition at 3 μM)
Cc1ccc(N2CCc3ncnc(NCc4cccc(F)c4F)c3C2)nc1 [Compound 77]	++++/ ^ (compound exhibited 75% or greater inhibition at 3 μM)
Cc1ccc(N2CCc3ncnc(NCc4ccc(F)c(C)c4)c3C2)nc1 [Compound 98]	++++/ ^ (compound exhibited 75% or greater inhibition at 3 μM)
COc1cccc(CN(C)c2ncnc3c2CN(c2ccc(C)cn2)CC3)c1 [Compound 64]	+/ (compound exhibited 0-25% inhibition at 3 μM)
Cc1ccc(N2CCc3ncnc(NCc4cc(F)ccc4F)c3C2)nc1 [Compound 71]	+++/ ^ (compound exhibited 50-75% inhibition at 3 μM)
Cc1ccc(N2CCc3ncnc(NCCc4ccc(Cl)cc4)c3C2)nc1 [Compound 48]	++++/ ^ (compound exhibited 75% or greater inhibition at 3 μM)
Clc1cccnc1N1CCc2ncnc(Nc3ccccc3)c2C1 [Compound 2, 6-(3-Chloropyridin-2-yl)-5,6,7,8-tetrahydro-N-phenylpyrido[4,3-d]pyrimidin-4-amine]	+/ (compound exhibited 0-25% inhibition at 3 μM)
Cc1ccc(N2CCc3ncnc(NCCc4cccc(C(F)(F)F)c4)c3C2)nc1 [Compound 61]	++++ (compound exhibited 75% or greater inhibition at 3 μM)
CN1CC(C)(C)c2ccc(Nc3ncnc4c3CN(c3ncccc3Cl)CC4)cc21 [Compound 16, [6-(3-Chloro-pyridin-2-yl)-5,6,7,8-tetrahydro-pyrido[4,3-d]pyrimidin-4-yl]-(3,3-dimethyl-2,3-dihydro-1-methyl-indol-6-yl)-amine]	+/ (compound exhibited 0-25% inhibition at 3 μM)
Cc1ccc(N2CCc3ncnc(NCc4cc(Cl)cc(Cl)c4)c3C2)nc1 [Compound 115]	+/ (compound exhibited 0-25% inhibition at 3 μM)
COc1ccc(CN(C)c2ncnc3c2CN(c2ccc(C)cn2)CC3)cc1OC [Compound 59]	++ (compound exhibited 25-50% inhibition at 3 μM)
Cc1ccc(N2CCc3ncnc(NCCc4ccc(Cl)c(Cl)c4)c3C2)nc1 [Compound 54]	+++/ ^ (compound exhibited 50-75% inhibition at 3 μM)
Cc1ccc(N2CCc3ncnc(NCc4ccccc4C(F)(F)F)c3C2)nc1 [Compound 39]	+++/ ^ (compound exhibited 50-75% inhibition at 3 μM)
Cc1ccc(CNc2ncnc3c2CN(c2ccc(C)cn2)CC3)cc1 [Compound 56]	++++/ ^ (compound exhibited 75% or greater inhibition at 3 μM)
COc1ccccc1CN(C)c1ncnc2c1CN(c1ccc(C)cn1)CC2 [Compound 63]	+/ (compound exhibited 0-25% inhibition at 3 μM)
Cc1ccc(N2CCc3ncnc(NCc4ccc(F)c(C(F)(F)F)c4)c3C2)nc1 [Compound 76]	+/ (compound exhibited 0-25% inhibition at 3 μM)
COc1ccc(CCNc2ncnc3c2CN(c2ccc(C)cn2)CC3)cc1OC [Compound 47]	+++/ ^ (compound exhibited 50-75% inhibition at 3 μM)
Cc1ccc(N2CCc3ncnc(NCc4ccc(C(C)C)cc4)c3C2)nc1 [Compound 58]	+/ (compound exhibited 0-25% inhibition at 3 μM)
Cc1ccc(N2CCc3ncnc(NCc4cccc(C)c4C)c3C2)nc1 [Compound 80]	+/ (compound exhibited 0-25% inhibition at 3 μM)
Cc1ccc(N2CCc3ncnc(NCc4cccc(C(F)(F)F)c4)c3C2)nc1 [Compound 38]	+++/ ^ (compound exhibited 50-75% inhibition at 3 μM)
COc1ccc(CNc2ncnc3c2CN(c2ccc(C)cn2)CC3)cc1 [Compound 53]	++++/ ^ (compound exhibited 75% or greater inhibition at 3 μM)
Cc1ccc(CN(C)c2ncnc3c2CN(c2ccc(C)cn2)CC3)cc1 [Compound 70]	++/ (compound exhibited 25-50% inhibition at 3 μM)
Cc1ccc(N2CCc3ncnc(NCc4ccc(OC(F)(F)F)cc4)c3C2)nc1 [Compound 40]	+++/ ^ (compound exhibited 50-75% inhibition at 3 μM)
Cc1ccc(N2CCc3ncnc(NCc4cc(C(F)(F)F)ccc4Cl)c3C2)nc1 [Compound 89]	+ (compound exhibited 0-25% inhibition at 3 μM)
Cc1ccc(N2CCc3ncnc(N(C)Cc4cccc(Cl)c4)c3C2)nc1 [Compound 66]	+/ (compound exhibited 0-25% inhibition at 3 μM)
COc1cc(CNc2ncnc3c2CN(c2ccc(C)cn2)CC3)cc(OC)c1 [Compound 87]	+/ (compound exhibited 0-25% inhibition at 3 μM)
Cc1ccc(N2CCc3ncnc(N(C)Cc4ccccc4)c3C2)nc1 [Compound 36]	+/ (compound exhibited 0-25% inhibition at 3 μM)
Cc1ccc(N2CCc3ncnc(NCCc4ccccc4)c3C2)nc1 [Compound 45]	++++/ ^ (compound exhibited 75% or greater inhibition at 3 μM)

same assay, conditions: at 10 μM (symbol after the slash)

Structure (SMILES)	Ca Influx P2X2/3C % Inhibition at 3 μM/10 μM
COc1cccc(CNc2ncnc3c2CN(c2ccc(C)cn2)CC3)c1 [Compound 28]	**** (compound exhibited 25-50% inhibition at 10 μM)
Cc1ccc(N2CCc3ncnc(NCCc4cccc(C(F)(F)F)c4)c3C2)nc1 [Compound 61]	**** (compound exhibited 25-50% inhibition at 10 μM)
COc1ccc(CN(C)c2ncnc3c2CN(c2ccc(C)cn2)CC3)cc1OC [Compound 59]	**** (compound exhibited 25-50% inhibition at 10 μM)
Cc1ccc(N2CCc3ncnc(NCc4cc(C(F)(F)F)ccc4Cl)c3C2)nc1 [Compound 89]	* (compound exhibited 0-25% inhibition at 10 μM)
CC(C)(C)c1ccc(Nc2ncnc3c2CN(c2ncccc2Cl)CC3)cn1 [Compound 17, (6-tert-Butyl-pyridin-3-yl)-[6-(3-chloro-pyridin-2-yl)-5,6,7,8-tetrahydro-pyrido[4,3-d]pyrimidin-4-yl]-amine]	/* (compound exhibited 0-25% inhibition at 10 μM)
